In patent US7348315B2, “Methods of treating heart failure with modified ATP, ADP and AMP compounds” (priority 1995, dated 2008):

How the values were obtained:
[1] = system: cardiac ventricular myocytes; assay: Contractile amplitude of cultured cardiac ventricular myocytes (optico-video motion detection); assay type: cell-based, chick; conditions: for ability to stimulate an increase in contractile amplitude: FIGS. 1a-1d; for desensitization of the positive inotropic response to ATP, ADPβS and UTP after pre-exposure: pre-exposure 100 μM, 60 minutes (2-methylthio ATP) or three hours (UTP); for maximal % increase in contractile amplitude: ventricular myocytes (chick embryo 14 days in ovo / adult rat), mean ± SE
Excerpt: […] Sen, L., Liang, B. T., Colucci, W. S., Smith, T. W., Circ. Res. 67:1182-1192 (1990), modified to include the use of a high-speed peristaltic pump (Masterflex from Cole-Palmer/Spectrum), choice of lots of collagenase, hyaluronidase and protease that give the highest proportion of rod-shaped myocytes, inclusion of bovine serum albumin containing various enzymes, and pre-plating with laminin-coated plates or glass coverslips (for contractility measurement) to eliminate damaged, rounded up myocytes. Specifically, hearts from Sprague-Dawley rats were perfused in a retrograde manner for 5 minutes in Krebs-Henseleit (KH) bicarbonate buffer containing 118 mM NaCl, 4.6 mM KCl, 1.2 mM MgSO4, 1.25 mM CaCl2, 1.2 mM KH2PO4, 25 mM NaHCO3, and 11 mM glucose, gassed with 95% O2/5% CO2/at pH 7.4 (37° C., and an osmolality of 287 mosm/liter). The perfusion buffer was changed to nominally Ca^2+-free KH buffer for 5 min to arrest spontaneous beating. The heart was then perfused with the Ca^2+-free KH buffer containing 0.05% collagenase (Worthington) and 0.03% hyaluronidase (Sigma Chem. Co., St. Louis, Mo.) for 20 min. After removing the atria and the great vessels, the ventricular tissue was finely minced in the same collagenase/hyaluronidase buffer described above except that trypsin (0.02 mg/ml, Sigma) and deoxyribonuclease (0.02 mg/ml, Sigma) was also added. The minced tissue was further incubated in this buffer at 37° C. with shaking to facilitate dissociation of individual ventricular myocytes. The dissociated cells containing some damaged cells were filtered and layered twice over a 6% bovine serum albumin gradient. The rod-shaped healthy heart cells sedimented more easily than the round damaged cells. After the second sedimentation through the 6% BSA gradient, the final pellet contains more than 90% rod-shaped heart cells.
Ventricular myocytes were cultured from chick embryos 14 days in ovo according to known procedures. Briefly, isolated ventricular myocytes from chick embryos 14 in ovo were prepared in calcium- and magnesium-free Hanks' balanced salt sodium (HBSS) containing 0.025% trypsin (GIBCO, Grand Island, N.Y.). After neutralization of trypsin medium containing horse serum and HBSS, cells were centrifuged and resuspended in culture medium containing 6% fetal bovine serum, 40% Medium 199 (GIBCO), 0.1% penicillin/streptomycin, and a salt solution. The final concentrations in the culture medium (in mmol/L) were Na 142, K 3.3, Mg 0.7, Ca 1.4, Cl 130, HCO3 16.4, and glucose 5.5. Cells were plated at a density of 400,000 cell per ml and cultivated in a humidified 5% CO2-95% […]
The cell isolation procedure was generally that of Kelly, R. A., Eid, H., Kramer, B. K., O'Neill, M., Liang, B. T., Reers, M., Smith, T. W., J. Clin. Invest. 86:1164-1171 (1990), […] Cells became confluent on day 3 in culture and contractility measurement was carried out on that day.
Measurement of contractile amplitude in cultured ventricular cells was carried out generally according to the methods of Xu, D., Kong, H., Liang, B. T., Circ. Res. 70:56-65 (1992), and Barry, W. H., and Smith, T. W., J. Physiol. (Lond) 325:243-260 (1982). […]

working rat heart = assay: Intact working rat heart; conditions: FIG. 11
Method: For the working heart model, a column of KHS buffer produced a constant hydrostatic pressure of 65 mmHg (for rat) or 55 mmHg (for mice). The opening of the pulmonary vein was connected via a PE-90 (for rat) or PE-50 (for mice) catheter to a reservoir of KHS buffer that maintained a “venous return” flow into the left atrium of about 12 mL/min (rat) or 5 mL/min (mice) under the resting condition. The venous return was maintained by a constant level of hydrostatic pressure (7-8 mm Hg) yielding a steady rate of venous return. The entering KHS buffer was then switched from retrograde to antegrade perfusion and produced a work-performing heart preparation. […] Aortic flow was the amount of perfusate exiting the aortic cannula measured in […]. […]
The pressure recordings were channeled from amplifiers which had been precalibrated by a transducer simulator/calibrator (Ken Scientific Corp., Litchfield, Conn.). […] Data were analyzed by computer software (WorkBench for Windows+, Kent Scientific Corp.) designed for an IBM-compatible computer (Dell). […] Data points under each basal condition and during infusion of each drug concentration were summarized as means±SE, and the statistical differences were analyzed by one-way ANOVA with post-test comparison and t test.

isolated mouse heart = assay: Work-performing isolated mouse heart; conditions: 100 nM, vs basal; for increase in +dP/dt (cardiac muscle contractility) / increase in cardiac output (C.O.) / increase in −dP/dt (diastolic relaxation): P less than 0.05, paired t test
Method: perfusion in the isolated heart was carried out using the work-performing model described as follows: For the working heart model, a column of KHS buffer produced a constant hydrostatic pressure of 65 mmHg (for rat) or 55 mmHg (for mice). The opening of the pulmonary vein was connected via a PE-90 (for rat) or PE-50 (for mice) catheter to a reservoir of KHS buffer that maintained a “venous return” flow into the left atrium of about 12 mL/min (rat) or 5 mL/min (mice) under the resting condition. The venous return was maintained by a constant level of hydrostatic pressure (7-8 mm Hg) yielding a steady rate of venous return. The entering KHS buffer was then switched from retrograde to antegrade perfusion and produced a work-performing heart preparation. The perfusate exited the left ventricle through the aorta cannula, which was connected to the aortic column of KHS buffer with a hydrostatic pressure of 55 mmHg (for mice) or 65 mmHg (for rat). Aortic flow was the amount of perfusate exiting the aortic cannula measured in millimeters per minute. Coronary flow, in millimeters per minute, was collected via opening of the pulmonary artery. The sum of aortic flow and coronary flow was the cardiac output. A 23 gauge catheter was inserted into the left ventricle and its distal end is connected to a pressure transducer to record left ventricular pressures and ±dP/dt. The left ventricular developed pressure (LVDP) was the difference between LV systolic and diastolic pressure. A side port of the reservoir allowed direct infusion of beta-adrenergic agonist isoproterenol or P2X receptor agonist 2-[…] into the KHS buffer that entered the left ventricle via the left atrium, which then entered the coronary circulation following ejection of drug-containing perfusate into the aorta. The pressure recordings were channeled from amplifiers which had been precalibrated by a transducer simulator/calibrator (Ken Scientific Corp., Litchfield, Conn.). The signals were then digitized via a PCM-DAS 16S/330 interface board (Computer Boards, Inc. Mansfield, Mass.) which provided a high level of performance with analog input channels and digital channels. Data were analyzed by computer software (WorkBench for Windows+, Kent Scientific Corp.) designed for an IBM-compatible computer (Dell). […] Data acquisition, signal display (LV pressures, ±dP/dt, heart rate), and data analysis programs were run concurrently from the hard drive of the computer. Data points under each basal condition and during infusion of each drug concentration were summarized as means±SE, and the statistical differences were analyzed by one-way ANOVA with post-test comparison and […] and ISO (isoproterenol) were present at 100 nM. Basal represented the baseline values obtained before infusion with the agonists. Date were the means and standard errors of those obtained in 5 rats.

Molecule: CSc1nc(N)c2ncn([C@@H]3O[C@H](COP(=O)(O)OP(=O)(O)O)[C@@H](O)[C@H]3O)c2n1 [2-methylthio ADP]
- effect on basal contractile amplitude (positive inotropic effect) ([1]; myocytes paced at 2 HZ, FIG. 7): pronounced positive inotropic effect

Molecule: CSc1nc(N)c2ncn([C@@H]3O[C@H](COP(=O)(O)OP(=O)(O)OP(=O)(O)O)[C@@H](O)[C@H]3O)c2n1 [2-methylthio ATP]
- ability to stimulate an increase in contractile amplitude [1]: capable of stimulating an increase in contractile amplitude
- desensitization of the positive inotropic response to ATP, ADPβS and UTP after pre-exposure [1]: desensitized the positive inotropic response
- maximal % increase in contractile amplitude [1]: 54±7%
- +dP/dt (index of muscle contractility) (working rat heart): increases
- −dP/dt (index of diastolic relaxation) (working rat heart): increases
- heart rate (H.R.) (isolated mouse heart): did not change the heart rate
- increase in +dP/dt (cardiac muscle contractility) (isolated mouse heart): statistically significant
- increase in cardiac output (C.O.) (isolated mouse heart): statistically significant
- increase in −dP/dt (diastolic relaxation) (isolated mouse heart): statistically significant

Molecule: Nc1ncnc2c1ncn2[C@@H]1O[C@H](COP(=O)(O)OP(=O)(O)O)[C@@H](O)[C@H]1O [ADP]
- maximal % increase in contractile amplitude [1]: 47.7±10%

Molecule: Nc1ncnc2c1ncn2[C@@H]1O[C@H](COP(=O)(O)OP(O)(O)=S)[C@@H](O)[C@H]1O [ADPβS]
- maximal % increase in contractile amplitude [1]: 76±15%

Molecule: Nc1ncnc2c1ncn2[C@@H]1O[C@H](COP(=O)(O)O)[C@@H](O)[C@H]1O [AMP]
- maximal % increase in contractile amplitude [1]: 9.6±4%

Molecule: Nc1ncnc2c1ncn2[C@@H]1O[C@H](COP(=O)(O)OP(=O)(O)OP(=O)(O)O)[C@@H](O)[C@H]1O [ATP]
- maximal % increase in contractile amplitude [1]: 89.7±9%

Molecule: Nc1ncnc2c1ncn2[C@@H]1O[C@H](COP(=O)(O)OP(=O)(O)NP(=O)(O)O)[C@@H](O)[C@H]1O [App(NH)p, adenylyl imidodiphospate]
- effect on contractile amplitude in presence of adenosine receptor antagonist 8-SPT ([1]; App(NH)p plus 8-sulfophenyltheophylline, FIG. 8): not mediated via the adenosine receptor
- effect on basal contractile amplitude (positive inotropic effect) ([1]; FIG. 8): pronounced positive inotropic effect

Molecule: O=c1ccn([C@@H]2O[C@H](COP(=O)(O)OP(=O)(O)OP(=O)(O)O)[C@@H](O)[C@H]2O)c(=O)[nH]1 [UTP]
- ability to stimulate an increase in contractile amplitude [1]: not capable of producing the same effect
- desensitization of the positive inotropic response to ATP, ADPβS and UTP after pre-exposure [1]: failed to cause such desensitization
- maximal % increase in contractile amplitude [1]: 22±4%

Molecule: Nc1ncnc2c1ncn2[C@@H]1O[C@H](COP(N)(=O)O)[C@@H](O)[C@H]1O [adenosine 5′monophosphoramidate]
- effect on basal contractile amplitude (positive inotropic effect) ([1]; myocytes paced at 2 HZ, FIG. 7): pronounced positive inotropic effect

Molecule: Nc1ncnc2c1ncn2[C@@H]1O[C@H](CO)[C@@H](O)[C@H]1O [adenosine]
- maximal % increase in contractile amplitude [1]: 15±4%

Molecule: CC(C)NCC(O)c1ccc(O)c(O)c1 (stereo not shown) [isoproterenol]
- heart rate (H.R.) (isolated mouse heart): significant stimulation
- increase in +dP/dt (cardiac muscle contractility) (isolated mouse heart): statistically significant
- increase in cardiac output (C.O.) (isolated mouse heart): statistically significant
- increase in −dP/dt (diastolic relaxation) (isolated mouse heart): statistically significant

Molecule: Nc1ncnc2c1ncn2[C@@H]1O[C@H](COP(=O)(O)CP(=O)(O)OP(=O)(O)O)[C@@H](O)[C@H]1O [α,β-methylene ATP]
- ability to stimulate an increase in contractile amplitude [1]: not capable of producing the same effect
- maximal % increase in contractile amplitude [1]: −13±5%

Molecule: adenylyl 5′phosphoramidate
- effect on basal contractile amplitude (positive inotropic effect) ([1]; myocytes paced at 2 HZ, FIG. 7): pronounced positive inotropic effect
